The text below walks through data of PubChem BioAssay (NCI).

The structures appear in SMILES notation. Where “and” joins values, the source holds several entries; their conditions need not be identical. Equal values may be shown once.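 Following 48 hours of exposure in 96-well plates, responses at five concentrations were used to interpolate endpoints linearly. At the GI50, growth is halved. TGI: concentration producing complete growth inhibition.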 A value given as a limit tells only on which side of the number the result lay.

Some test systems named below: A498 renal; M14 melanoma; OVCAR-8 ovarian; SK-MEL-2 melanoma; SNB-19 CNS; MDA-MB-435; NCI-H522 lung; RXF 393 renal; SK-MEL-28 melanoma; MALME-3M melanoma.
What all share (assay): NCI anticancer screen, dose series, 48 h

Regarding `CCOC(=O)c1c(NC(=S)NCc2ccccc2)sc2c1CCN(C)C2`, the TGI in the assay with A498 renal, in the assay with M14 melanoma, with OVCAR-8 ovarian, in the assay with SK-MEL-2 melanoma and with SNB-19 CNS was above 100 µM each time.
For `CC(C)(C)CC(C)(C)Cc1ccc(OCCOCC[N+](C)(C)Cc2ccccc2)cc1`, the GI50 in the assay on A498 renal was 2080 nM; in the assay with M14 melanoma, 1420 nM; with MDA-MB-435, 1330 nM; with NCI-H522 lung, 1550 nM; in the assay on RXF 393 renal, 1420 nM; in the assay on SK-MEL-28 melanoma it was 1560 nM. The TGI in the assay with A498 renal turned out to be 9.38 µM; with M14 melanoma it was 2.88 µM; with MDA-MB-435, 2.66 µM; in the assay with NCI-H522 lung it was 4.45 µM; with RXF 393 renal, 3 µM; in the assay on SK-MEL-28 melanoma, 3.08 µM.
On to `CN1CCN(c2ccc3nc(-c4ccc(OCCCN5C(=O)c6cccc7cccc(c67)C5=O)cc4)[nH]c3c2)CC1`, for which the GI50 in the assay with A498 renal was 24100 nM; in the assay on MALME-3M melanoma, 4430 nM; with NCI-H522 lung, 24900 nM; in the assay with OVCAR-8 ovarian it was 2380 nM; in the assay on RXF 393 renal, 10000 nM; in the assay on SK-MEL-2 melanoma it was 25200 nM. For the same compound, the GI50 in the assay with SNB-19 CNS is 31 µM. The TGI in the assay with A498 renal was 50.4 µM; in the assay on MALME-3M melanoma it was above 30.8 µM; in the assay with NCI-H522 lung, above 88.8 µM; with OVCAR-8 ovarian, 5.48 µM; with RXF 393 renal, 41.7 µM; with SK-MEL-2 melanoma, 62.4 µM. Besides, the TGI with SNB-19 CNS stood at 69.6 µM.
For `COc1cc2c(cc1-c1c(C)noc1C)ncc1nc(C3CCCCC3)n(C3CCC(OC(F)F)CC3)c12` (stereo unspecified), the GI50 was 2140 nM with MDA-MB-435, 2740 nM with OVCAR-8 ovarian, 1330 nM in the assay on RXF 393 renal and 1670 nM with SK-MEL-28 melanoma. Further, the TGI in the assay with MDA-MB-435 was above 100 µM; in the assay on OVCAR-8 ovarian, above 100 µM; in the assay with RXF 393 renal, 3.99 µM; in the assay with SK-MEL-28 melanoma, above 100 µM.
Turning to `COc1cccc2c1C(=O)c1c(O)c3c(c(O)c1C2=O)C[C@@](O)(C(C)=O)C[C@@H]3OC1CC(N)C(O)C(C)O1` (stereo partly specified), the GI50 was 48.7 nM in the assay with M14 melanoma; 87.7 nM in the assay on MDA-MB-435; below 15.5 nM in the assay with NCI-H522 lung; below 20.1 nM with OVCAR-8 ovarian; 60.2 nM in the assay on RXF 393 renal; 122 nM with SK-MEL-2 melanoma. Besides, the GI50 in the assay on SNB-19 CNS is below 0.0135 µM.
On to `NC(=O)c1cc2ccccc2c(N=Nc2ccccc2)c1O`, for which the TGI in the assay with A498 renal, in the assay on M14 melanoma, with MALME-3M melanoma, in the assay with MDA-MB-435, with NCI-H522 lung and with OVCAR-8 ovarian was above 100 µM in each case. Further, the TGI in the assay on RXF 393 renal, with SK-MEL-2 melanoma, in the assay on SK-MEL-28 melanoma and in the assay on SNB-19 CNS was above 100 µM in each case.
Regarding `CCP(=O)(CC)C(Cl)(Cl)C(=O)NC`, the TGI with M14 melanoma, in the assay with MDA-MB-435, in the assay with NCI-H522 lung, in the assay with OVCAR-8 ovarian, with SK-MEL-2 melanoma and in the assay on SK-MEL-28 melanoma was above 100 µM throughout. Also, the TGI with SNB-19 CNS was above 100 µM.
In the case of `N#Cc1ccc(Nc2nc3nc[nH]c3c(=O)[nH]2)cc1`, the TGI in the assay on A498 renal, in the assay on M14 melanoma, in the assay on MALME-3M melanoma, in the assay with MDA-MB-435, with NCI-H522 lung and with OVCAR-8 ovarian was above 100 µM each time. For the same compound, the TGI in the assay with SK-MEL-2 melanoma, in the assay on SK-MEL-28 melanoma and with SNB-19 CNS was above 100 µM each time.
Take `CC(=O)OC1CC2(O)C(CCC3(C)C(c4ccc(=O)oc4)CCC32O)C2(C)CCC(O)C=C12` (stereo unspecified): the TGI was 0.31 µM and 0.176 µM in the assay on A498 renal; 0.0469 µM with MALME-3M melanoma; 0.00626 µM in the assay on NCI-H522 lung; 0.0926 µM and 0.0472 µM with OVCAR-8 ovarian; 0.027 µM and 0.0399 µM in the assay with RXF 393 renal; 0.0542 µM and 0.0976 µM in the assay on SK-MEL-2 melanoma. For the same compound, the TGI in the assay on SK-MEL-28 melanoma was 0.289 µM and 0.171 µM; with SNB-19 CNS, 0.225 µM and 0.244 µM. For the same compound, the GI50 in the assay with MALME-3M melanoma was 11.2 nM; with OVCAR-8 ovarian, 37.5 nM; in the assay with RXF 393 renal, 6.24 nM; in the assay on SK-MEL-2 melanoma, 37.5 nM.
With `O=c1c(-c2ccccc2)c[nH]c2cc([N+](=O)[O-])c(/C(Cl)=C/c3ccccc3)cc12`, the TGI is 35.4 µM in the assay with A498 renal; 16.3 µM in the assay on NCI-H522 lung; 17.5 µM in the assay with OVCAR-8 ovarian; 29.5 µM with RXF 393 renal; above 100 µM with SK-MEL-2 melanoma; above 55.1 µM in the assay on SK-MEL-28 melanoma. Also, in the assay on SNB-19 CNS, the TGI is above 54.5 µM.
Take `Cc1c2cc[n+](C)cc2c(C)c2c1[nH]c1ccc(O)cc12`: the TGI with A498 renal was 99.4 µM; with M14 melanoma it was 20.5 µM; in the assay with MALME-3M melanoma it was 26.4 µM; in the assay with MDA-MB-435, above 100 µM; in the assay on NCI-H522 lung, 55.9 µM; in the assay with OVCAR-8 ovarian it was above 98.3 µM. In addition, the TGI was above 100 µM with RXF 393 renal, above 96.9 µM in the assay with SK-MEL-2 melanoma, 66 µM with SK-MEL-28 melanoma and 22.5 µM in the assay on SNB-19 CNS.
With `O=C(CCN1CCCC1)Nc1ccc2c(NCCCCc3ccccc3)c3ccccc3nc2c1`, the GI50 in the assay with A498 renal was 1430 nM; with MALME-3M melanoma, 1720 nM; with MDA-MB-435 it was 1560 nM; in the assay with RXF 393 renal, 802 nM; with SK-MEL-2 melanoma it was 1760 nM; with SK-MEL-28 melanoma, 1800 nM. Besides, the TGI in the assay with A498 renal is 2.82 µM; in the assay with MALME-3M melanoma, 3.26 µM; with MDA-MB-435 it was 2.95 µM; in the assay on RXF 393 renal it was 2.18 µM; with SK-MEL-2 melanoma, 3.34 µM; in the assay on SK-MEL-28 melanoma it was 3.24 µM.
Take `Cc1c2cc[n+](C)cc2c(COC2OC(CO)C(O)C2O)c2c3ccccc3n(C)c12` (stereo unspecified): the TGI in the assay with A498 renal is above 100 µM; in the assay on MALME-3M melanoma, 98.4 µM; in the assay with NCI-H522 lung it was above 100 µM; in the assay with OVCAR-8 ovarian, above 100 µM; with RXF 393 renal, above 100 µM; in the assay on SK-MEL-2 melanoma, above 100 µM. Moreover, the TGI in the assay on SK-MEL-28 melanoma is above 100 µM; in the assay with SNB-19 CNS, above 95.7 µM.
